Results reported in patent US8623921B2, “Bis(thio-hydrazide amide) formulation” (Synta Pharmaceuticals Corp., priority 2005, dated 2014).
“Also recorded” adds a separate entry of the source.

How the values were obtained:
[1] = Stability during freeze-drying by reverse-phase HPLC; type: physicochemical
Experimental: Reverse phase HPLC was used to quantify the potency and purity of; disodium 2-(N′-methyl-N′-thiobenzoyl-hydrazinocarbonyl)-1-(methyl-thiobenzoyl-hydrazono)-ethanolate following freeze-drying. The analysis was performed as detailed in the analytical method.

[2] = DSC analysis of glass transition temperatures (Tg, Tg′); type: physicochemical; details: compound itself
Experimental: Tg′ and Tg were evaluated using a PYRIS Diamond DSC. Samples for Tg′ determination were prepared by loading 50 μL of sample into a 500 μL aluminum pan, then sealing the pan using the sealing press. The thermal program used to identify Tg′ (without annealing) was: • 1. Ramp from 20° C. to −50° C. at 10° C./min • 2. Hold at −50° C. for 4 minutes • 3. Ramp from −50° C. to 20° C. at 10° C./min The thermal program used to identify Tg′ that included an annealing step was: • 1. Ramp from 20° C. to −45° C. at 10° C./min • 2. Hold at −45° C. for 10 minutes • 3. Ramp from −45° C. to −8° C. at 10° C./min • 4. Hold at −8° C. for 1 hour • 5. Ramp from −8° C. to −70° C. at 10° C./min • 6. Hold at −70° C. for 5 minutes • 7. Ramp from −70° C. to 20° C. at 10° C./min Tg′ was taken to be the midpoint of the transition.
Freeze-dried samples used in the determination of […] ramped the temperature from 25° C. to 150° C. at 10° C./min.

| Structure (SMILES) | main peak purity ([1]; RP-HPLC after freeze-drying, on average) [%] | stability during freeze-drying ([1]; reverse-phase HPLC, all freeze-drying cycles tested) | Tg (glass transition temperature) [2] [°C] |
| --- | --- | --- | --- |
| CN(NC(=O)CC(=O)NN(C)C(=S)c1ccccc1)C(=S)c1ccccc1 [disodium 2-(N′-methyl-N′-thiobenzoyl-hydrazinocarbonyl)-1-(methyl-thiobenzoyl-hydrazono)-ethanolate] | 97 | stable through all of the freeze-drying cycles tested, as no degradation products were detected; also recorded: did not adversely affect the stability | – |
| CN(/N=C(\O)C/C(O)=N/N(C)C(=S)c1ccccc1)C(=S)c1ccccc1 [Structural Formula, (II)] | – | – | −44.7 |
